Results: US11958861B2, “Spirocyclic lactams as JAK2 V617F inhibitors” (Incyte Corporation, priority 2021, dated 2024)
Where a name gives a salt, the structure may show the parent alone.

Columns and labels:
[1] = target: T1, pseudo-kinase domain (JH2, amino-acids 536-812) of human Wild Type JAK2 (Homo sapiens, UniProt O60674, F794H/W659A/W777A); experiment: JAK2 LanthaScreen JH2-WT Binding Assay; settings: 1 hour at 25° C.
T1 construct: pseudo-kinase domain (JH2, amino-acids 536-812 with 3 surface mutations W659A, W777A, F794H); purchased BPS Bioscience 79463; host or cells: baculovirus expression system
How it was run: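 IC50 values derive from four-parameter fits of LanthaScreen signal, measuring displacement of 50 nM fluorescent tracer from 0.145 nM biotinylated, baculovirus-expressed JH2 (536-812) detected by 0.25 nM streptavidin-Tb. Incubation lasts 1 hour at 25° C, pH 7.5.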

[2] = target: T2, pseudo-kinase domain (JH2, amino-acids 536-812) of human V617F mutant JAK2 (Homo sapiens, UniProt O60674, F794H/V617F/W659A/W777A); experiment: JAK2 LanthaScreen JH2-V617F Binding Assay; settings: 1 hour at 25° C.
T2 construct: pseudo-kinase domain (JH2, amino-acids 536-812 with 3 surface mutations W659A, W777A, F794H); purchased BPS Bioscience 79498; host or cells: baculovirus expression system
How it was run: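 Biotinylated His-Avi-tagged JH2 protein was baculovirus-expressed and used at 0.26 nM. It was incubated with compound, 50 nM fluorescent JH2 tracer and 0.25 nM streptavidin-Tb for 1 h at 25 °C in pH 7.5 Tris buffer with MgCl2, BSA, DTT. Non-specific binding was defined with 2 mM ATP. IC50 came from four-parameter fits of TR-FRET signal.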

[3] = target: T3, catalytic domain (JH1, amino acids 808-1132) of human JAK2 (Homo sapiens, UniProt O60674); experiment: JAK2 HTRF Enzyme Activity Assay; format: biochemical; settings: ATP 30 μM, read-out: ENZ 30UMATP
T3 construct: catalytic domain (JH1, amino acids 808-1132) of human JAK2; His (N); purchased BPS Bioscience 40450; host or cells: baculovirus expression system
How it was run: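 His-tagged JAK2 JH1 from baculovirus, 0.015 nM, incubated with compound, ATP at 30 μM or 1 mM and 500 nM biotinylated peptide, pH 7.5, 60 min at 25° C. HTRF read-out via Eu-anti-phosphotyrosine and streptavidin-APC after EDTA stop; IC50 from four-parameter dose-response fit.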

[4] = target: T4, catalytic domain (JH1, amino acids 826-1132) of human JAK2 (Homo sapiens, UniProt O60674); experiment: JAK2 LanthaScreen JH1 Binding Assay; settings: 2 hours at 25° C.
T4 construct: catalytic domain (JH1, amino acids 826-1132) of human JAK2; purchased Carna Biosciences 08-445-20N; host or cells: baculovirus expression system
How it was run: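 FLAG-tagged biotinylated JAK2 JH1 (1.5 nM) incubated with compounds, 50 nM fluorescent tracer and 0.5 nM streptavidin-Tb in Tris pH 7.5 buffer with MgCl2, BSA, DTT, 2 h at 25 °C.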

T2 sequence (O60674 536-812 V617F/W659A/W777A/F794H): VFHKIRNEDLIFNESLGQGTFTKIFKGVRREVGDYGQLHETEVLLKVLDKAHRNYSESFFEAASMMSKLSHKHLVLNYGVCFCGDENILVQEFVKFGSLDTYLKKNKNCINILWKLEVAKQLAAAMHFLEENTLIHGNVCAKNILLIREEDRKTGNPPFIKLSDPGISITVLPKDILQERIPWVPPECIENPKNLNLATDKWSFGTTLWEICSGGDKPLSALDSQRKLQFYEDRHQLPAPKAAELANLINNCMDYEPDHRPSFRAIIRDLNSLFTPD
T4 sequence (O60674 826-1132): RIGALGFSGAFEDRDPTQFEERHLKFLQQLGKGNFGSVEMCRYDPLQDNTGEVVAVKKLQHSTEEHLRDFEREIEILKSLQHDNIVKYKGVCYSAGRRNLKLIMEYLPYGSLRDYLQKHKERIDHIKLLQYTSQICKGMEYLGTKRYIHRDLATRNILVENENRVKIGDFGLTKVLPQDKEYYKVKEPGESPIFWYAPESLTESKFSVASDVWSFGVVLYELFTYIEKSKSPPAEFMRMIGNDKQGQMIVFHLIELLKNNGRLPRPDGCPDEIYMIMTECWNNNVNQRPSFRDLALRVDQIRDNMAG
T1 sequence (O60674 536-812 W659A/W777A/F794H): as the sequence (O60674 536-812 V617F/W659A/W777A/F794H) above, with F82V counted along it
T3 sequence (O60674 808-1132): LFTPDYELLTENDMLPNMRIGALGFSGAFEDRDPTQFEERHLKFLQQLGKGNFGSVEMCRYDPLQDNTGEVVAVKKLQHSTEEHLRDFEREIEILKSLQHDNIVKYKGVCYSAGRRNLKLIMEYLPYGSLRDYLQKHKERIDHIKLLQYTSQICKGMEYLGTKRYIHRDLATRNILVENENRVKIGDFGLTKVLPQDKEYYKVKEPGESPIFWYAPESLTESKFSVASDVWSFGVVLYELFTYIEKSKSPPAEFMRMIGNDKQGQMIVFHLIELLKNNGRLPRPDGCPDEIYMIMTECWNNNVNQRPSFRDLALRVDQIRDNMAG

Row | Structure (SMILES) | IC50 [1] [nM] | IC50 [2] [nM] | IC50 [3] [nM] | IC50 [4] [nM]
1 | CN1C(=O)C2(CCCC2)c2c1cnc1[nH]c(-c3cnn(C)c3)c(-c3ccc(CN4CCN(S(C)(=O)=O)CC4)cc3)c21 [Example 22, 6′-Methyl-2′-(1-methyl-1H-pyrazol-4-yl)-1′-(4-((4-(methylsulfonyl)piperazin-1-yl)methyl)phenyl)-3′,6′-dihydro-7′H-spiro[cyclopentane-1,8′-dipyrrolo[2,3-b:3′,2′-d]pyridin]-7′-one, trifluoroacetate salt] | ≤ 100 | 100 to 500 | > 2500 | > 2500
2 | CCCC(=O)N1CCC2(CC1)CC1(C2)C(=O)N(C)c2cnc3[nH]c(C4=CCC(C(=O)N(C)C)CC4)c(-c4ccc5c(cnn5C)c4)c3c21 (racemic) [Example 63, 4-(1″-Butyryl-6-methyl-1-(1-methyl-1H-indazol-5-yl)-7-oxo-6,7-dihydro-3H-dispiro[dipyrrolo[2,3-b:3′,2′-d]pyridine-8,1′-cyclobutane-3′,4″-piperidin]-2-yl)-N,N-dimethylcyclohex-3-ene-1-carboxamide, trifluoroacetate salt] | ≤ 100 | ≤ 100 | > 2500 | > 2500
3 | CN1C(=O)C2(CCN(C3(CC#N)CCC3)CC2)c2c1cnc1[nH]c(-c3cnn(CC(C)(C)O)c3)c(-c3ccc4c(cnn4C)c3)c21 [Example 32, 2-(1-(2-(1-(2-Hydroxy-2-methylpropyl)-1H-pyrazol-4-yl)-6-methyl-1-(1-methyl-1H-indazol-5-yl)-7-oxo-6,7-dihydro-3H-spiro[dipyrrolo[2,3-b:3′,2′-d]pyridine-8,4′-piperidin]-1′-yl)cyclobutyl)acetonitrile, trifluoroacetate salt] | ≤ 100 | ≤ 100 | 100 to 500 | 100 to 500
4 | CN1C(=O)C2(CCN(C(C)(C)c3c[nH]nn3)CC2)c2c1cnc1[nH]c(-c3cnn(C)c3)c(-c3ccc4c(cnn4C)c3)c21 [Example 76, 1′-(2-(1H-1,2,3-Triazol-4-yl)propan-2-yl)-6-methyl-1-(1-methyl-1H-indazol-5-yl)-2-(1-methyl-1H-pyrazol-4-yl)-3,6-dihydro-7H-spiro[dipyrrolo[2,3-b:3′,2′-d]pyridine-8,4′-piperidin]-7-one] | ≤ 100 | ≤ 100 | 100 to 500 | 100 to 500
5 | COCCn1cc(-c2[nH]c3ncc4c(c3c2-c2ccc3c(cnn3C)c2)C2(CCN(C3(CC#N)CCC3)CC2)C(=O)N4C)cn1 [Example 36, 2-(1-(2-(1-(2-Methoxyethyl)-1H-pyrazol-4-yl)-6-methyl-1-(1-methyl-1H-indazol-5-yl)-7-oxo-6,7-dihydro-3H-spiro[dipyrrolo[2,3-b:3′,2′-d]pyridine-8,4′-piperidin]-1′-yl)cyclobutyl)acetonitrile, trifluoroacetate salt] | ≤ 100 | ≤ 100 | 100 to 500 | 100 to 500
6 | CC(CC#N)n1cc(-c2ccc(-c3c(-c4cnn(C)c4)[nH]c4ncc5c(c34)C3(CCCC3)C(=O)N5C)cc2)cn1 (racemic) [Example 14, 3-(4-(4-(6′-Methyl-2′-(1-methyl-1H-pyrazol-4-yl)-7′-oxo-6′,7′-dihydro-3′H-spiro[cyclopentane-1,8′-dipyrrolo[2,3-b:3′,2′-d]pyridin]-1′-yl)phenyl)-1H-pyrazol-1-yl)butanenitrile trifluoroacetate salt] | ≤ 100 | 100 to 500 | > 2500 | > 2500
7 | O=C(O)C(F)(F)F.[2H]C([2H])([2H])N1C(=O)C2(CC3(CN(S(=O)(=O)CC)C3)C2)c2c1cnc1[nH]c(-c3cnn(C(C)C)c3)c(-c3ccc4c(cnn4C)c3)c21 [Example 89, 1-(Ethylsulfonyl)-2″-(1-isopropyl-1H-pyrazol-4-yl)-6″-(methyl-d3)-1″-(1-methyl-1H-indazol-5-yl)-3″,6″-dihydro-7″H-dispiro[azetidine-3,1′-cyclobutane-3′,8″-dipyrrolo[2,3-b:3′,2′-d]pyridin]-7″-one, trifluoroacetate salt] | ≤ 100 | ≤ 100 | 1250 to 2500 | 1250 to 2500
8 | CN1C(=O)C2(CCN(C3(CC#N)CCC3)CC2)c2c1cnc1[nH]c(-c3cnn(C4CCOC4)c3)c(-c3ccc4c(cnn4C)c3)c21 (racemic) [Example 45, 2-(1-(6-Methyl-1-(1-methyl-1H-indazol-5-yl)-7-oxo-2-(1-(tetrahydrofuran-3-yl)-1H-pyrazol-4-yl)-6,7-dihydro-3H-spiro[dipyrrolo[2,3-b:3′,2′-d]pyridine-8,4′-piperidin]-1′-yl)cyclobutyl)acetonitrile, trifluoroacetate salt] | ≤ 100 | ≤ 100 | ≤ 100 | 100 to 500
9 | COCCS(=O)(=O)N1CCC2(CC1)CC1(C2)C(=O)N(C)c2cnc3[nH]c(-c4cnn(C)c4)c(-c4ccccc4)c3c21 [Example 62, 1″-((2-Methoxyethyl)sulfonyl)-6-methyl-2-(1-methyl-1H-pyrazol-4-yl)-1-phenyl-3,6-dihydro-7H-dispiro[dipyrrolo[2,3-b:3′,2′-d]pyridine-8,1′-cyclobutane-3′,4″-piperidin]-7-one, trifluoroacetate salt] | ≤ 100 | ≤ 100 | > 2500 | > 2500
10 | CO[C@H]1CC[C@@](CC#N)(N2CCC3(CC2)C(=O)N(C)c2cnc4[nH]c(-c5cnn(C)c5)c(-c5ccc6c(cnn6C)c5)c4c23)CC1 (single isomer, unassigned) [Example 75a, 2-(4-Methoxy-1-(6-methyl-1-(1-methyl-1H-indazol-5-yl)-2-(1-methyl-1H-pyrazol-4-yl)-7-oxo-6,7-dihydro-3H-spiro[dipyrrolo[2,3-b:3′,2′-d]pyridine-8,4′-piperidin]-1′-yl)cyclohexyl)acetonitrile] | ≤ 100 | ≤ 100 | 100 to 500 | 100 to 500
